US6680300B2 (Board of Regents, The University of Texas System, priority 1998, dated 2004)
Converted amounts (≈) assume the structure as drawn. “And” between values parts separate entries of the source, which are not always exact repeats. Equal values may be shown once.

Experiments:
[1] = system: multi-drug-resistant (KBV1) carcinoma cells overexpressing MDR1 (P-gp); test: MTT cytotoxicity assay, multi-drug-resistant KBV1 cells; assay type: cell-based, human; details: for RI (resistance index) KBV1 vs KB: KBV1 relative to KB; for ID50 KBV1: MTT, 72 hours incubation, KBV1 cells
Method: (§1) Compounds synthesized using the methods described above were tested using a standard MTT assay (Green et al., 1984) against human carcinoma sensitive (KB) and multi-drug-resistant (KBV1) cells and MCF-7 and MCF-7/VP-16 resistant cells characterized as having the MRP (multi-drug resistant associated protein) phenotype. The use of an MTT assay using these cells is recognized as an accepted assay for anti-tumor activity by those in the field.
(§2) In vitro drug cytotoxicities against human breast carcinoma wild-type MCF-7 and MRP-resistant MCF-7/VP-16 cells were assessed by using the MTT reduction assay, as previously reported (Green et al., 1984). The MTT dye was obtained from Sigma Chemical Co. (St. Louis, Mo.). Cells were plated in 96-well microassay culture plates (10^4 cells/well) and grown overnight at 37° C. in a 5% CO2 incubator. Drugs were then added to the wells to achieve a final drug concentration ranging from 0.1 to 50 μg/mL. Four wells were used for each concentration. Control wells were prepared by adding appropriate volumes of calcium- and magnesium-free PBS (pH 7.4). Wells containing culture medium without cells were used as blanks. The plates were incubated at 37° C. in a 5% CO2 incubator for 72 hours. Upon completion of the incubation, 20 μL of stock MTT dye solution (5 mg/mL) was added to each well. After a 4-hour incubation, 100 μL of buffer containing 50% N,N-dimethylformamide and 20% SDS was added to solubilize the MTT formazan. Complete solubilization was achieved by placing the plate in a mechanical shaker for 30 minutes at room temperature. The optical density of each well was then measured with a microplate spectrophotometer at a wavelength of 570 nm. The percent cell viability was calculated by the following equation:
(§3) % cell viability=(OD treated wells/OD control wells)×100
(§4) where OD is the mean optical density from four determinations. The percent cell viability values were plotted against the drug concentrations used, and the ID50 was calculated from the curve. Cytotoxicity experiments were repeated at least three times.
(§5) Drug resistance, both de novo and acquired, by human tumors is currently a major factor limiting the effectiveness of chemotherapy. […] Using this system, the inventors evaluate a drug's cytotoxic potential against human tumors and at the same time identify compounds that might have unique activity against MDR tumors (Priebe et al., 1993).

[2] = system: human carcinoma sensitive (KB) cells; test: MTT cytotoxicity assay, sensitive KB cells; assay type: cell-based; details: 72 hours incubation
Method: as §1, §2, §3
where OD is the mean optical density from four determinations. The percent cell viability values were plotted against the drug concentrations used, and the ID50 was calculated from the curve. Cytotoxicity experiments were repeated at least three times. […]

[3] = system: human breast carcinoma wild-type MCF-7 cells; test: MTT cytotoxicity assay, wild-type MCF-7 cells; assay type: cell-based; details: 72 hours incubation
Method: as §1
(§6) In vitro drug cytotoxicities against human breast carcinoma wild-type MCF-7 and MRP-resistant MCF-7/VP-16 cells were assessed by using the MTT reduction assay, as previously reported (Green et al., 1984). The MTT dye was obtained from Sigma Chemical Co. (St. Louis, Mo.). Cells were plated in 96-well microassay culture plates (10^4 cells/well) and grown overnight at 37° C. in a 5% CO2 incubator. Drugs were then added to the wells to achieve a final drug concentration ranging from 0.1 to 50 μg/mL. Four wells were used for each concentration. […] The optical density of each well was then measured with a microplate spectrophotometer at a wavelength of 570 nm. The percent cell viability was calculated by the following equation: […]
(§7) where OD is the mean optical density from four determinations. The percent cell viability values were plotted against the drug concentrations used, and the ID50 was calculated from the curve. […]

[4] = system: MCF-7/dox cell line which overexpresses MDR1 gene; test: MTT cytotoxicity assay, MCF-7/dox cells; assay type: cell-based, human; details: for RI (resistance index) MCF-7/dox vs MCF-7: MCF-7/dox relative to MCF-7; for ID50 MCF-7/dox: MTT, 72 hours incubation, MCF-7/dox cells
Method: [Worded in the source for another cell line; this cell line is reported under the same test.] as §1, §2, §3, §4, §5

several cell lines = test: In vitro potency comparison in several cell lines; assay type: cell-based; details: in vitro cytotoxicity
[5] = system: MRP-resistant MCF-7/VP-16 cells; test: MTT cytotoxicity assay, MRP-resistant MCF-7/VP-16 cells; assay type: cell-based, human
Method: as §1, §6, §7

Row | Structure (SMILES) | RI (resistance index) KBV1 vs KB [1] | ID50 KBV1 [1] | ID50 KB [2] | ID50 MCF-7 [3] | RI (resistance index) MCF-7/dox vs MCF-7 [4] | ID50 MCF-7/dox [4] | potency relative to daunorubicin analog WP809 (several cell lines) | RI (resistance index) MCF-7/VP-16 vs MCF-7 ([5]; MCF-7/VP-16 relative to MCF-7) | ID50 MCF-7/VP-16 ([5]; MTT, 72 hours incubation, MCF-7/VP-16 cells) [ng/mL]
1 | COc1cccc2c1C(=O)c1c(O)c3c(c(O)c1C2=O)C[C@@](O)(C(C)=O)C[C@@H]3O[C@H]1C[C@H](N)[C@H](O)[C@H](C)O1 [DNR, daunorubicin] | 45 | 10,000 ± 0 ng/mL | 220 ± 10 ng/mL (≈ 417 nM) | – | – | – | – | – | –
2 | COc1cccc2c1C(=O)c1c(O)c3c(c(O)c1C2=O)C[C@@](O)(C(=O)CO)C[C@@H]3O[C@H]1C[C@H](N)[C@H](O)[C@H](C)O1 [DOX, doxorubicin] | >294 | >100,000 ng/mL | 340 ± 100 ng/mL (≈ 626 nM) | 300 ± 170 ng/mL and 240 ± 50 ng/mL | >333 and >416 | 100,000 ng/mL and >100,000 ng/mL | – | – | –
3 | COc1cccc2c1C(=O)c1c(O)c3c(c(O)c1C2=O)C[C@@](O)(C(=O)CO)C[C@@H]3O[C@H]1C[C@H]2[C@H](OC3CCCN32)[C@H](C)O1 (stereo partly shown) [WP836] | – | – | 0.65 ± 0.14 ng/mL and 0.5 ± 0.06 ng/mL | 0.43 ± 0.06 ng/mL (≈ 0.722 nM) | 1.56 | 0.67 ± 0.15 ng/mL (≈ 1.12 nM) | several fold | 1 | 0.43 ± 0.06 (≈ 0.722 nM)
